# Measured values published in ChEMBL document CHEMBL3046523, “Protection of protein carbonyl formation by quercetin in erythrocytes subjected to oxidative stress” (Med Chem Res, 2010).
# Tests used:
# [1] = Antioxidant activity in plasma assessed as ABTS radical scavenging activity relative to trolox; type: functional, cell-free
# Erythrocyte [2] = assay: Antioxidant activity in Homo sapiens (human) erythrocytes assessed as protection against t-BHP-induced oxidative stress at 0.1 to 100 uM; type: functional, cell-based; conditions: TDE = time-dependent effect
# Erythrocyte [3] = assay: Antioxidant activity in Homo sapiens (human) erythrocytes assessed as protection against t-BHP-induced oxidative stress measured up to 180 min; type: functional, cell-based
smiles,measurement,setting,value
O=c1c(O)c(-c2ccc(O)c(O)c2)oc2cc(O)cc(O)c12,fold change (FC),[1],6
same,Activity,Erythrocyte [2],tde
same,Activity,Erythrocyte [3],Dose-dependent effect
